Reference: the OligoGym collection
Values joined by “and” are separate entries in the source; they are usually repeats but may differ in a detail not shown here. Equal entries are not always repeated. After the bases stand the sugars from the 5' end (letter, count) and the backbone: PS all phosphorothioate, else s phosphorothioate and o phosphodiester by linkage. Methylation of C is not given here. e = 2'-O-(2-methoxyethyl) (MOE); k = constrained ethyl (cEt); d = 2'-deoxy (DNA)

Target: SOD1
Settings: ASO

Sequence: CTTCAGCACGCACACGGCCT (sugars e5 d10 e5, PS)
- target mRNA inhibition (HepG2, 0.1875 µM): 13%
- target mRNA inhibition (HepG2, 0.75 µM): 23%
- target mRNA inhibition (HepG2, 3 µM): 48%
- target mRNA inhibition (HepG2, 4 µM): 57%
- target mRNA inhibition (HepG2, 12 µM): 77%

Sequence: TTAATGTTTATCAGGATA (sugars e5 d8 e5, linkages s1 o3 s9 o2 s2)
- target mRNA inhibition (A431, 0.12 µM): 18%
- target mRNA inhibition (A431, 0.6 µM): 7%
- target mRNA inhibition (A431, 3 µM): 11%
- target mRNA inhibition (A431, 15 µM): 9%
- target mRNA inhibition (HepG2, 0.222 µM): 0%
- target mRNA inhibition (HepG2, 0.667 µM): 17%
- target mRNA inhibition (HepG2, 2 µM): 47%
- target mRNA inhibition (HepG2, 6 µM): 72%

Sequence: GTGTTTAATGTTTATC (sugars ekddddddddekekee, linkages s1 o1 s8 o3 s2)
- target mRNA inhibition (A431, 0.12 µM): 10%
- target mRNA inhibition (A431, 0.6 µM): 32%
- target mRNA inhibition (A431, 3 µM): 66%
- target mRNA inhibition (A431, 15 µM): 79%
- target mRNA inhibition (HepG2, 0.222 µM): 40%
- target mRNA inhibition (HepG2, 0.667 µM): 63%
- target mRNA inhibition (HepG2, 2 µM): 76%
- target mRNA inhibition (HepG2, 6 µM): 86%

Sequence: GCGACTACTTTATAGGC (sugars e3 k2 d7 k2 e3, PS)
- target mRNA inhibition (HepG2, 3 µM): 12%

Sequence: CACCTTCACTGGTCCAT (sugars e3 k2 d7 k2 e3, PS)
- target mRNA inhibition (HepG2, 0.1875 µM): 19%
- target mRNA inhibition (HepG2, 0.75 µM): 39%
- target mRNA inhibition (HepG2, 3 µM): 53% and 69%
- target mRNA inhibition (HepG2, 12 µM): 88%

Sequence: TCACTGGTCCATTACTT (sugars e3 k2 d7 k2 e3, PS)
- target mRNA inhibition (HepG2, 3 µM): 15%

Sequence: TGATCATAAATCAGTTT (sugars e2 k2 d9 k2 e2, PS)
- target mRNA inhibition (HepG2, 5 µM): 38%

Sequence: GCGGCCAATGATGCAATGGT (sugars e5 d10 e5, PS)
- target mRNA inhibition (HepG2, 5 µM): 13%

Sequence: ATGTTTATCAGGATACA (sugars e4 d8 e5, linkages s1 o2 s9 o2 s2)
- target mRNA inhibition (A431, 0.062 µM): 0%
- target mRNA inhibition (A431, 0.185 µM): 4%
- target mRNA inhibition (A431, 0.556 µM): 10%
- target mRNA inhibition (A431, 1.667 µM): 33%
- target mRNA inhibition (A431, 5 µM): 56%
- target mRNA inhibition (A431, 15 µM): 50%
- target mRNA inhibition (SH-SY5Y, 0.062 µM): 0%
- target mRNA inhibition (SH-SY5Y, 0.185 µM): 4%
- target mRNA inhibition (SH-SY5Y, 0.556 µM): 32%
- target mRNA inhibition (SH-SY5Y, 1.667 µM): 37%
- target mRNA inhibition (SH-SY5Y, 5 µM): 61%
- target mRNA inhibition (SH-SY5Y, 15 µM): 83%

Sequence: GGCGATCCCAATTACAC (sugars e2 k2 d8 k2 e3, PS)
- target mRNA inhibition (HepG2, 4 µM): 33%

Sequence: GCTTCCCCACACCTTCACTG (sugars e5 d10 e5, PS)
- target mRNA inhibition (HepG2, 3 µM): 50%

Sequence: ACTGGTACAGCCTGCTGTAT (sugars e5 d10 e5, PS)
- target mRNA inhibition (HepG2, 5 µM): 22% and 28%

Sequence: AGTTTAATACCCATCTG (sugars e2 k2 d9 k2 e2, PS)
- target mRNA inhibition (HepG2, 5 µM): 43%

Sequence: CCAGACCTCCGCGCCTCGCC (sugars e5 d10 e5, PS)
- target mRNA inhibition (HepG2, 4 µM): 46%

Sequence: CTGACAAGTTTAATACC (sugars e3 k2 d7 k2 e3, PS)
- target mRNA inhibition (HepG2, 3 µM): 10%

Sequence: CCAAGGGAATGTTTATT (sugars e3 k2 d7 k2 e3, PS)
- target mRNA inhibition (HepG2, 3 µM): 36%

Sequence: CCAATTACACCACAAGC (sugars e3 k2 d7 k2 e3, PS)
- target mRNA inhibition (HepG2, 3 µM): 29%

Sequence: TCTTCATTTCCACCTTT (sugars e3 k2 d7 k2 e3, PS)
- target mRNA inhibition (HepG2, 3 µM): 31%

Sequence: CTTCCAAGTGATCATAA (sugars e2 k2 d8 k2 e3, PS)
- target mRNA inhibition (HepG2, 5 µM): 40%

Sequence: AGACATTTTAACTGAGT (sugars e2 k2 d8 k2 e3, PS)
- target mRNA inhibition (HepG2, 5 µM): 46%

Sequence: TTTAATGTTTATCAGGAT (sugars e5 d8 e5, linkages s1 o3 s9 o2 s2)
- target mRNA inhibition (A431, 0.12 µM): 13%
- target mRNA inhibition (A431, 0.6 µM): 19%
- target mRNA inhibition (A431, 3 µM): 22%
- target mRNA inhibition (A431, 15 µM): 7%
- target mRNA inhibition (HepG2, 0.222 µM): 10%
- target mRNA inhibition (HepG2, 0.667 µM): 24%
- target mRNA inhibition (HepG2, 2 µM): 28%
- target mRNA inhibition (HepG2, 6 µM): 53%

Sequence: ACTTTAAAGCAACTCTGAAA (sugars e5 d10 e5, PS)
- target mRNA inhibition (HepG2, 5 µM): 0%

Sequence: CCGTCGCCCTTCAGCAC (sugars e3 k2 d7 k2 e3, PS)
- target mRNA inhibition (HepG2, 3 µM): 27%

Sequence: AGGTACTTTAAAGCAAC (sugars e2 k2 d8 k2 e3, PS)
- target mRNA inhibition (HepG2, 5 µM): 35%

Sequence: GGATAACAGATGAGTTA (sugars e2 k2 d9 k2 e2, PS)
- target mRNA inhibition (HepG2, 4 µM): 63%

Sequence: GCCATACAGGGTTTTTA (sugars e2 k2 d9 k2 e2, PS)
- target mRNA inhibition (HepG2, 5 µM): 26%

Sequence: AAAATACAGGTCATTGA (sugars e3 k2 d7 k2 e3, PS)
- target mRNA inhibition (HepG2, 3 µM): 28%

Sequence: CTTCTGCTCGAAATTGA (sugars e3 k2 d7 k2 e3, PS)
- target mRNA inhibition (HepG2, 3 µM): 13%

Sequence: GATACATTTCTACAGCT (sugars e3 k2 d7 k2 e3, PS)
- target mRNA inhibition (HepG2, 3 µM): 40%

Sequence: TCAGACTACATCCAAGG (sugars e2 k2 d8 k2 e3, PS)
- target mRNA inhibition (HepG2, 0.1875 µM): 37%
- target mRNA inhibition (HepG2, 0.75 µM): 71%
- target mRNA inhibition (HepG2, 3 µM): 81%
- target mRNA inhibition (HepG2, 4 µM): 79%
- target mRNA inhibition (HepG2, 12 µM): 92%

Sequence: TTCTCACTACAGGTACT (sugars e2 k2 d8 k2 e3, PS)
- target mRNA inhibition (HepG2, 5 µM): 26%

Sequence: AGATTACAGTGTTTAAT (sugars e2 k2 d8 k2 e3, PS)
- target mRNA inhibition (HepG2, 0.1875 µM): 16%
- target mRNA inhibition (HepG2, 0.75 µM): 50%
- target mRNA inhibition (HepG2, 3 µM): 62%
- target mRNA inhibition (HepG2, 5 µM): 68%
- target mRNA inhibition (HepG2, 12 µM): 77%
